For the assay, the target named is human SSTR2 (Homo sapiens (Human), UniProt P30874). The assay is described as follows: Human SSTR2 intracellular cAMP functional assay for agonists (HTRF). The assay is classed as cell-based. The method, boiled down:
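Cells bearing human SSTR2 exposed to compound for 20 minutes at 37 °C; after lysis, cAMP measured by time-resolved fluorescence (HTRF) and converted via a standard curve. EC50 calculated from cAMP versus compound concentration.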

[1] abbreviates: CHO-K1 cells stably expressing human SSTR2, NKH477-stimulated cAMP, read-out: EC50 (inhibition of cAMP activities via human SST2R).

Like-named read-outs stand apart in the source and are kept apart here.

Sequence of human SSTR2 (P30874 whole entry): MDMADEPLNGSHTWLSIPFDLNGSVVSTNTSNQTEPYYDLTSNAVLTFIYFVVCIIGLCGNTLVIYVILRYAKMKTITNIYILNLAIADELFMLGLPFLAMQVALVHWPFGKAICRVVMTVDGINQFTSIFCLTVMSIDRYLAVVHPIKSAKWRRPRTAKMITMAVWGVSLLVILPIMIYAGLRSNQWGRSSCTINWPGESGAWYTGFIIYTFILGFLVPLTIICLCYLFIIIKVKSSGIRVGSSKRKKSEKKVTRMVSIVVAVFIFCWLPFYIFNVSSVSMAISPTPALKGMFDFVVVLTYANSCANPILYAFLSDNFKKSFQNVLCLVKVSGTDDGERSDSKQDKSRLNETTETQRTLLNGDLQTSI

Take `COC(=O)Nc1c(F)cccc1-c1ccc2ncc(-c3cc(C)cc(F)c3)c(N3CCC(N)CC3)c2c1` [2-209, methyl N-{2-[4-(4-aminopiperidin-1-yl)-3-(3-fluoro-5-methylphenyl)quinolin-6-yl]-6-fluorophenyl}carbamate]: the EC50 (as a rule, the concentration at which the effect is half-maximal) under setting [1] was less than 0.01 µM.
Same read-out and setting: as for `CON(C)C(=O)Nc1c(F)cccc1-c1ccc2ncc(-c3cc(C)cc(F)c3)c(N3CCC(N)CC3)c2c1` [2-210, 1-{2-[4-(4-aminopiperidin-1-yl)-3-(3-fluoro-5-methylphenyl)quinolin-6-yl]-6-fluorophenyl}-3-methoxy-3-methylurea], the figure is less than 0.01 µM; as for `Cc1cc(F)cc(-c2cnc3ccc(-c4cn(C)nc4N)cc3c2N2CCC(N)CC2)c1` [2-211, 1-[6-(3-amino-1-methyl-1H-pyrazol-4-yl)-3-(3-fluoro-5-methylphenyl)quinolin-4-yl]piperidin-4-amine], less than 0.01 µM; as for `CONC(=O)Nc1nn(C)cc1-c1ccc2ncc(-c3cc(C)cc(F)c3)c(N3CCC(N)CC3)c2c1` [2-212, 1-{4-[4-(4-aminopiperidin-1-yl)-3-(3-fluoro-5-methylphenyl)quinolin-6-yl]-1-methyl-1H-pyrazol-3-yl}-3-methoxyurea], less than 0.01 µM.
`CON=Cc1cc(-c2ccc3ncc(-c4cc(C)cc(F)c4)c(N4CCC(N)CC4)c3c2)ccc1O` [2-213, 4-[4-(4-aminopiperidin-1-yl)-3-(3-fluoro-5-methylphenyl)quinolin-6-yl]-2-[(methoxyimino)methyl]phenol] gave an EC50 of 0.01 to 0.1 µM.
As to `COC(=O)Nc1nn(C)cc1-c1ccc2ncc(-c3cc(C)cc(F)c3)c(N3CCC(N)CC3)c2c1` [2-214, methyl N-{4-[4-(4-aminopiperidin-1-yl)-3-(3-fluoro-5-methylphenyl)quinolin-6-yl]-1-methyl-1H-pyrazol-3-yl}carbamate], under setting [1], the EC50 was less than 0.01 µM.
As for `CONC(=O)Nc1nccc(C)c1-c1ccc2ncc(-c3cc(C)cc(F)c3)c(N3CCC(N)CC3)c2c1` [2-215, 1-{3-[4-(4-aminopiperidin-1-yl)-3-(3-fluoro-5-methylphenyl)quinolin-6-yl]-4-methylpyridin-2-yl}-3-methoxyurea], the EC50 was in the range of 0.01 to 0.1 µM.
`Cc1cc(F)cc(-c2cnc3ccc(-c4cc(F)cc(F)c4NC(=O)NOC(C)C)cc3c2N2CCC(N)CC2)c1` [2-216, 1-{2-[4-(4-aminopiperidin-1-yl)-3-(3-fluoro-5-methylphenyl)quinolin-6-yl]-4,6-difluorophenyl}-3-(propan-2-yloxy)urea]: under setting [1], the 50% effective concentration (EC50) was less than 0.01 µM.
Same read-out and setting: under `CONC(=O)Nc1ccc(C#N)cc1-c1ccc2ncc(-c3cc(C)cc(F)c3)c(N3CCC(N)CC3)c2c1` [2-222] stands less than 0.01 µM; under `CONC(=O)Nc1cc(F)cc(-c2ccc3ncc(-c4cc(C)cc(F)c4)c(N4CCC(N)CC4)c3c2)c1` [2-223, 1-{3-[4-(4-aminopiperidin-1-yl)-3-(3-fluoro-5-methylphenyl)quinolin-6-yl]-5-fluorophenyl}-3-methoxyurea], less than 0.01 µM.
Same read-out and setting: as for `CONC(=O)Nc1ncccc1-c1ccc2ncc(-c3cc(C)cc(F)c3)c(N3CCC(N)CC3)c2c1` [2-226, 1-{3-[4-(4-aminopiperidin-1-yl)-3-(3-fluoro-5-methylphenyl)quinolin-6-yl]pyridin-2-yl}-3-methoxyurea], the figure is less than 0.01 µM; as for `CCONC(=O)Nc1c(F)cc(F)cc1-c1ccc2ncc(-c3cc(C)cc(F)c3)c(N3CCC(N)CC3)c2c1` [2-228, 1-{2-[4-(4-aminopiperidin-1-yl)-3-(3-fluoro-5-methylphenyl)quinolin-6-yl]-4,6-difluorophenyl}-3-ethoxyurea], less than 0.01 µM.
On to `COCCNc1nn(C)cc1-c1ccc2ncc(-c3cc(C)cc(F)c3)c(N3CCC(N)CC3)c2c1` [2-229, 1-[3-(3-fluoro-5-methylphenyl)-6-{3-[(2-methoxyethyl)amino]-1-methyl-1H-pyrazol-4-yl}quinolin-4-yl]piperidin-4-amine], for which, under setting [1], the EC50 is less than 0.01 µM.
The same measure, in the same setting: under `COCC(=O)Nc1c(F)cc(F)cc1-c1ccc2ncc(-c3cc(C)cc(F)c3)c(N3CCC(N)CC3)c2c1` [2-230, N-{2-[4-(4-aminopiperidin-1-yl)-3-(3-fluoro-5-methylphenyl)quinolin-6-yl]-4,6-difluorophenyl}-2-methoxyacetamide] stands less than 0.01 µM; under `N#CCOc1c(C#N)cccc1-c1ccc2ncc(-c3cc(F)cc(F)c3)c(N3CCC(N)CC3)c2c1` [2-231, 3-[4-(4-aminopiperidin-1-yl)-3-(3,5-difluorophenyl)quinolin-6-yl]-2-(cyanomethoxy)benzonitrile], less than 0.01 µM; under `Cc1cc(F)cc(-c2cnc3ccc(-c4cc(F)cc(F)c4NC(=O)NOCC(F)(F)F)cc3c2N2CCC(N)CC2)c1` [2-233, 1-{2-[4-(4-aminopiperidin-1-yl)-3-(3-fluoro-5-methylphenyl)quinolin-6-yl]-4,6-difluorophenyl}-3-(2,2,2-trifluoroethoxy)urea], less than 0.01 µM.
Consider `COCCNc1ncc(F)cc1-c1ccc2ncc(-c3cc(C)cc(F)c3)c(N3CCC(N)CC3)c2c1` [2-234, 3-[4-(4-aminopiperidin-1-yl)-3-(3-fluoro-5-methylphenyl)quinolin-6-yl]-5-fluoro-N-(2-methoxyethyl)pyridin-2-amine], for which the EC50 under setting [1] was less than 0.01 µM.
On the same count and under the same terms, as for `CONC(=O)Nc1c(F)cc(C#N)cc1-c1ccc2ncc(-c3cc(C)cc(F)c3)c(N3CCC(N)CC3)c2c1` [2-237, 1-{2-[4-(4-aminopiperidin-1-yl)-3-(3-fluoro-5-methylphenyl)quinolin-6-yl]-4-cyano-6-fluorophenyl}-3-methoxyurea], the figure is less than 0.01 µM; as for `N#Cc1ccc(NC(=O)NOCC(F)(F)F)c(-c2ccc3ncc(-c4cc(F)cc(F)c4)c(N4CCC(N)CC4)c3c2)c1` [2-238, 1-{2-[4-(4-aminopiperidin-1-yl)-3-(3,5-difluorophenyl)quinolin-6-yl]-4-cyanophenyl}-3-(2,2,2-trifluoroethoxy)urea], less than 0.01 µM.
`CONC(=O)Nc1nc(C)ccc1-c1ccc2ncc(-c3cc(C)cc(F)c3)c(N3CCC(N)CC3)c2c1` [2-239, 1-{3-[4-(4-aminopiperidin-1-yl)-3-(3-fluoro-5-methylphenyl)quinolin-6-yl]-6-methylpyridin-2-yl}-3-methoxyurea] displayed a half-maximal effective concentration (EC50) of 0.01 to 0.1 µM.
Same read-out and setting: under `CONC(=O)Nc1ccc(-c2ccc3ncc(-c4cc(C)cc(F)c4)c(N4CCC(N)CC4)c3c2)cc1` [2-240, 1-{4-[4-(4-aminopiperidin-1-yl)-3-(3-fluoro-5-methylphenyl)quinolin-6-yl]phenyl}-3-methoxyurea] stands 0.01 to 0.1 µM.
On to `NC1CCN(c2c(-c3cc(F)cc(F)c3)cnc3ccc(-c4c(O)c(Br)cc(F)c4F)cc23)CC1` [2-241, 2-[4-(4-aminopiperidin-1-yl)-3-(3,5-difluorophenyl)quinolin-6-yl]-6-bromo-3,4-difluorophenol], for which the EC50 under setting [1] is less than 0.01 µM.
`COCCNc1ncc(C#N)cc1-c1ccc2ncc(-c3cc(C)cc(F)c3)c(N3CCC(N)CC3)c2c1` [2-242, 5-[4-(4-aminopiperidin-1-yl)-3-(3-fluoro-5-methylphenyl)quinolin-6-yl]-6-[(2-methoxyethyl)amino]pyridine-3-carbonitrile]: the half-maximal effective concentration (EC50) under setting [1] was less than 0.01 µM.
Same read-out and setting: under `Oc1ncccc1-c1ccc2ncc(-c3cc(F)cc(F)c3)c(N3CC[C@H]4NCCO[C@@H]4C3)c2c1` [2-248, 3-{4-[trans-octahydro-1H-pyrido[3,4-b]morpholin-6-yl]-3-(3,5-difluorophenyl)quinolin-6-yl}pyridin-2-ol] stands less than 0.01 µM; under `Cc1ccnc(-c2ccc3ncc(-c4cc(F)cc(F)c4)c(N4CCC(N)CC4)c3c2)c1N` [2-250, 2-[4-(4-aminopiperidin-1-yl)-3-(3,5-difluorophenyl)quinolin-6-yl]-4-methylpyridin-3-amine], less than 0.01 µM; under `N#Cc1cncc(-c2ccc3ncc(-c4cc(F)cc(F)c4)c(N4CC[C@H]5NCCO[C@@H]5C4)c3c2)c1O` [2-254, 5-{4-[trans-octahydro-1H-pyrido[3,4-b]morpholin-6-yl]-3-(3,5-difluorophenyl)quinolin-6-yl}-4-hydroxypyridine-3-carbonitrile], 0.01 to 0.1 µM.
Same read-out and setting: as for `Cc1ccnc(-c2ccc3ncc(-c4cc(F)cc(F)c4)c(N4CC[C@H]5NCCO[C@@H]5C4)c3c2)c1O` [2-258, 2-{4-[trans-octahydro-1H-pyrido[3,4-b]morpholin-6-yl]-3-(3,5-difluorophenyl)quinolin-6-yl}-4-methylpyridin-3-ol], the figure is less than 0.01 µM; as for `Cc1cc(F)cc(-c2cnc3ccc(-c4nccc(C#N)c4N)cc3c2N2CC(C3COCCN3)C2)c1` (centres unmarked) [2-282, 3-amino-2-[3-(3-fluoro-5-methylphenyl)-4-[3-(morpholin-3-yl)azetidin-1-yl]quinolin-6-yl]pyridine-4-carbonitrile], less than 0.01 µM; as for `Cc1cc(F)cc(-c2cnc3ccc(-c4cc(F)cc(C(N)=O)c4)nc3c2N2CCC(N)CC2)c1` [3-1, 3-[8-(4-aminopiperidin-1-yl)-7-(3-fluoro-5-methylphenyl)-1,5-naphthyridin-2-yl]-5-fluorobenzamide], less than 0.01 µM.
The same measure, in the same setting: under `Cc1cc(F)cc(-c2cnc3ccc(-c4cc(F)cc5[nH]c(=O)[nH]c45)nc3c2N2CCC(N)CC2)c1` [3-3, 4-[8-(4-aminopiperidin-1-yl)-7-(3-fluoro-5-methylphenyl)-1,5-naphthyridin-2-yl]-6-fluoro-2,3-dihydro-1H-1,3-benzodiazol-2-one] stands less than 0.01 µM; under `Cc1cc(F)cc(-c2cnc3ccc(-c4ccc5[nH]c(=O)[nH]c5c4)nc3c2N2CCC(N)CC2)c1` [3-4, 5-[8-(4-aminopiperidin-1-yl)-7-(3-fluoro-5-methylphenyl)-1,5-naphthyridin-2-yl]-2,3-dihydro-1H-1,3-benzodiazol-2-one], less than 0.01 µM; under `Cc1cc(F)cc(-c2cnc3ccc(-c4cc(F)c5[nH]c(=O)[nH]c5c4)nc3c2N2CCC(N)CC2)c1` [3-5, 6-[8-(4-aminopiperidin-1-yl)-7-(3-fluoro-5-methylphenyl)-1,5-naphthyridin-2-yl]-4-fluoro-2,3-dihydro-1H-1,3-benzodiazol-2-one], less than 0.01 µM.

For the origin of these results see patent US10351547B2, “Somatostatin modulators and uses thereof” (priority 2016, dated 2019).
